{"source": "paper PMC6610884", "about": "(Journal of medicinal chemistry, 2018)", "key": {"P. berghei blood stages": {"system": "P. berghei blood stages", "conditions": "Pb-infected mice, single oral 50 mg/kg dose 1 day PI, compared to untreated animals"}, "P. falciparum TM90-C2B": {"system": "P. falciparum TM90-C2B", "conditions": "RI = EC50(TM90-C2B)/EC50(W2); cited from earlier work"}, "P. berghei liver stages [1]": {"system": "P. berghei liver stages", "conditions": "read-out: liver stage activity; cited from earlier work"}, "P. berghei liver stages [2]": {"system": "P. berghei liver stages", "type": "in vivo, Plasmodium berghei", "conditions": "liver stage model, mice"}, "Plasmodium cynomolgi": {"system": "Plasmodium cynomolgi", "conditions": "rhesus monkeys; cited from earlier work"}, "[3]": {"conditions": "single dose 50 mg/kg subcutaneous"}}, "note": "Several values for one entry are separate records, joined by “and”; a condition that tells them apart may be missing. Equal entries are not always repeated. Where two headings read alike, the source gives them in different places."}
{"molecule": "COC(=O)c1c[nH]c2cc(CN3CCN(c4ccc(C(F)(F)F)cc4)CC3)c(C)cc2c1=O", "note": "[8v, Methyl 6-Methyl-4-oxo-7-((4-(4-(trifluoromethyl)phenyl)-piperazin-1-yl)methyl)-1,4-dihydroquinoline-3-carboxylate]", "values": [{"measurement": "% inhibition day 6 PI", "setting": "P. berghei blood stages", "value": "completely inhibited parasite growth"}]}
{"molecule": "CCCCc1cc2c(=O)c(Br)c(C)[nH]c2cc1OCCOc1ccccc1", "note": "[compound 2, 3-bromo-6-butyl-2-methyl-7-(2-phenoxyethoxy)quinolin-4(1H)-one]", "values": [{"measurement": "resistance index (RI)", "setting": "P. falciparum TM90-C2B", "value": 4.7}, {"measurement": "EC50", "setting": "P. berghei liver stages [1]", "value": 2.12, "unit": "nM"}]}
{"molecule": "COC(=O)c1c[nH]c2cc(CN3CCN(c4ccc(C(F)(F)F)cc4)CC3)ccc2c1=O", "note": "[8p, Methyl 4-Oxo-7-((4-(4-(trifluoromethyl)phenyl)piperazin-1-yl)-methyl)-1,4-dihydroquinoline-3-carboxylate]", "values": [{"measurement": "% inhibition day 6 PI", "setting": "P. berghei blood stages", "value": "completely inhibited parasite growth"}]}
{"molecule": "COC(=O)c1c[nH]c2cc(CN3CCN(Cc4ccc(OC)cc4)CC3)ccc2c1=O", "note": "[8l, Methyl 7-((4-(4-Methoxybenzyl)piperazin-1-yl)methyl)-4-oxo-1,4-dihydroquinoline-3-carboxylate]", "values": [{"measurement": "no. of cures", "setting": "P. berghei liver stages [2]; single dose 25 mg/kg oral", "value": "0/5"}, {"measurement": "no. of cures", "setting": "P. berghei liver stages [2]; single dose 50 mg/kg oral", "value": "0/5"}, {"measurement": "no. of cures", "setting": "P. berghei liver stages [2]; [3]", "value": "0/5"}, {"measurement": "no. of cures", "setting": "P. berghei liver stages [2]; single dose 100 mg/kg oral, 100 mg/kg", "value": "one of five and 1/5"}]}
{"molecule": "COC(=O)c1c[nH]c2cc(CN3CCN(c4ccccc4)CC3)ccc2c1=O", "note": "[8j, Methyl 4-Oxo-7-((4-phenylpiperazin-1-yl)methyl)-1,4-dihydroquinoline-3-carboxylate]", "values": [{"measurement": "no. of cures", "setting": "P. berghei liver stages [2]; single dose 25 mg/kg oral", "value": "2/5"}, {"measurement": "no. of cures", "setting": "P. berghei liver stages [2]; single dose 50 mg/kg oral", "value": "2/5"}, {"measurement": "no. of cures", "setting": "P. berghei liver stages [2]; [3]", "value": "3/5"}, {"measurement": "no. of cures", "setting": "P. berghei liver stages [2]; single dose 100 mg/kg oral", "value": "5/5"}]}
{"molecule": "CCCCc1cc2c(=O)c(C(=O)OCC)c[nH]c2cc1OCCOc1ccccc1", "note": "[compound 1]", "values": [{"measurement": "radical cure (eradication of dormant exoerythrocytic stages)", "setting": "Plasmodium cynomolgi", "value": "radical cures"}]}
{"molecule": "COC(=O)c1c[nH]c2cc(CN3CCN(c4ccc(C(F)(F)F)cc4)CC3)c(OC)cc2c1=O", "note": "[8ab, Methyl 6-Methoxy-4-oxo-7-((4-(4-(trifluoromethyl)phenyl)-piperazin-1-yl)methyl)-1,4-dihydroquinoline-3-carboxylate]", "values": [{"measurement": "% inhibition day 6 PI", "setting": "P. berghei blood stages", "value": "completely inhibited parasite growth"}]}
{"molecule": "Cc1[nH]c2cc(CN3CCN(c4ccc(F)cc4)CC3)ccc2c(=O)c1Br", "note": "[8an, 3-Bromo-7-((4-(4-Fluorophenyl)piperazin-1-yl)methyl)-2-methylquinolin-4(1H)-one]", "values": [{"measurement": "% inhibition day 6 PI", "setting": "P. berghei blood stages", "value": "completely inhibited parasite growth"}]}
